According to patent US8318947B2, “Comestible compositions comprising high potency savory flavorants, and processes for producing them” (Senomyx, Inc., priority 2006, dated 2012):

Tests used:
trained tasters = experiment: Pizza sauce triangle difference taste test; assay type: in vivo, human
Method: For effective formulation in pizza sauce, a water soluble savory flavor concentrate formulation comprising 0.1% of Compound 1 was developed by dissolution in propylene glycol.
18221.7600 g of propylene glycol (supplied by Gold Coast, Inc.) was weighed out into a 2000 ml stainless steel cylinder, 18.2400 grams of Compound 1 was slowly added to 700.00 g of the propylene glycol using a Silverson Mill (model: L4RT) having a square hole high shear screen and set at 2000 rpm, until all of the dry 5807 (Compound 1) was added to the propylene glycol, the mill rpms was increased to 5,000-6,000 rpm's for 8-10 minutes. The remaining 17,521.76 g of propylene glycol was placed into a 10-gallon steam jacketed kettle equipped with a Lightnin Mixer utilizing a three blade impeller and heated to 50° C. (120° F.), then the milled solution was slowly added to the heated and agitated propylene glycol in the kettle. It took over 30 minutes of heating and mixing to completely solubilize Compound 1, then, the solution was allowed to cool to 80° F., then a Unispense Filler was used to fill sterilized 2 oz. glass containers with 62 grams of the liquid savory flavor, for storage. The water activity of the solution was 0.953@24.7° C., the refractive index was 1.4328, and the final concentration of this savory flavor was 0.10% of Compound 1.
Two pizza sauce samples, one comprising 0.4% of MSG and one containing no MSG, but comprising 1.1 ppm of Compound 1 were prepared using the ingredients listed in Tables 391 and 39-2 below, using the following procedure.
Salt, citric acid, sugar, the spices and herbs, including the MSG, were pre-blended as solids at 80-100 rpms in a 6 quart bowl and mixed using a KitchenAide blender for 5 minutes using a whip attachment. Water was placed in a clean kettle and stirred with a Lightnin mixer at 120-200 rpms to create a vortex. The savory flavor form of Compound 1, 0.10%, was slowly added to the water and mixed for five minutes. The vinegar and solid spice mixture was slowly added with the mixer still blending at 80-100 rpms until the dry seasonings were dissolved, approximately 5 minutes. The tomato paste was added and the slurry was mixed an additional 10. The resulting pizza sauce was transferred to a stainless steel six quart pot on a gas burner and was heated to pasteurizing temperature (175-190° F.) and held for a minimum of two minutes, cooled down to ambient (70+/−2° F.) temperature.
Ten trained tasters were trained to identify relative intensities of the following taste attributes: salty, savory/meaty, umami, brothiness, bitter, linger and off flavors. A triangle difference test determines if there is a sensory difference between two products. Three blinded, coded and randomized samples are presented to the panelist. Two samples are the same and one is different. To answer the test correctly, the panelist must taste all three samples and correctly pick out the sample they feel is different from the other two.
The samples were blind coded and presented in randomized order. The panelists each performed a total of two triangle tests, with 3 samples per test
a. Test 1: 2 samples with 1.1 ppm Compound 1; one sample with MSG.
b. Test 2: 2 samples with MSG; one sample with 1.1 ppm Compound 1.

[1] = tested on: human panelists, savory taste; experiment: Savory taste test with trained human panel (difference from reference); assay type: in vivo; conditions: for Taste Data: cpd concentration at which 12 mM MSG + cpd is as strong as 12 mM MSG + 100 μM IMP: with 12 mM MSG, reference 12 mM MSG + 100 μM IMP
Method: General Panelist Selection: Basic screening of sensory taste testers: Potential panelists were tested for their abilities to rank and rate intensities of solutions representing the five basic tastes. Panelists ranked and rated intensity of five different concentrations of each of the five following compounds: sucrose (sweet), sodium chloride (salty), citric acid (sour), caffeine (bitter), and monosodium glutamate (savory). In order to be selected for participation in testing, panelists needed to correctly rank and rate samples for intensity, with a reasonable number of errors.
Preliminary Taste Tests: The panelists selected in the above procedure were deemed qualified for performing Preliminary Taste Testing procedures. The preliminary taste tests are used to evaluate new compounds for intensity of basic tastes and off-tastes. A small group of panelists (n=5) taste approximately 5 concentrations of the compound (range typically between 1-100 μM, in half-log cycles, e.g., 1, 3, 10, 30, and 100 μM) in water and in a solution of 12 mM MSG to evaluate enhancement. Panelists rate the five basic tastes (sweet, salty, sour, bitter, and savory) as well as off-tastes (such as chemical, metallic, sulfur) on a labeled magnitude scale. Samples are served in 10 mL portions at room temperature. The purpose of the test is to determine the highest concentration at which there is no objectionable off-taste, and determine if obvious savory taste or enhancement of savory taste exists at any of the concentrations tested.
Trained Panelist Selection: A trained expert panel was used to further evaluate compounds that had been tested with the preliminary taste test.
Panelists for the trained panel were selected from the larger group of qualifying taste panelists. Panelists were further trained on savory taste by ranking and rating experiments using MSG and IMP combinations. Panelists completed a series of ranking, rating, and difference from reference tests with savory solutions. In ranking and rating experiments, panelists evaluated easy MSG concentrations (0, 6, 18, 36 mM) and more difficult MSG concentrations (3, 6, 12, 18 mM MSG) in water.
Compound testing with Trained Panel: Compounds tested by the trained panel were evaluated in difference from reference experiments. […] Test samples were solutions with varying amounts of MSG, IMP, and the compound. Typically, each session compares the reference sample to numerous test samples. […] Compounds were tested against the reference in samples with and without 12 mM MSG. All samples were presented in 10 ml volumes at room temperature. Two sessions were completed for each compound tested to evaluate panel reproducibility.

[2] = Test 1: 2 samples with 1.1 ppm Compound 1, one sample with MSG, 10 panelists
[3] = Test 2: 2 samples with MSG, one sample with 1.1 ppm Compound 1, 10 panelists

Row | SMILES | Distinguishing pizza sauce with compound (no MSG) from pizza sauce with full loading of MSG (trained tasters; 1.1 ppm Compound 1 vs 0.4% MSG) | # Correct (trained tasters; [2]) | # Incorrect (trained tasters; [2]) | # Correct (trained tasters; [3]) | # Incorrect (trained tasters; [3]) | # Correct (trained tasters; Totals, n = 20) | # Incorrect (trained tasters; Totals, n = 20) | Taste Data: cpd concentration at which 12 mM MSG + cpd is as strong as 12 mM MSG + 100 μM IMP [1] | Taste Data: cpd concentration as strong as 12 mM MSG ([1]; compound alone, without MSG)
1 | CCCC(CCC)NC(=O)c1ccc2c(c1)OCO2 [Example 1, N-(heptan-4-yl)benzo[d][1,3]dioxole-5-carboxamide] | could not distinguish between the sauces | 3 | 7 | 6 | 4 | 9 | 11 | 12 mM MSG + 3 μM cpd as | 
2 | COc1ccc(CNC(=O)C(=O)NCCc2ccccn2)c(OC)c1 [Example 24, N-(2,4-Dimethoxy-benzyl)-N′-(2-pyridin-2-yl-ethyl)-oxalamide] |  |  |  |  |  |  |  | 12 mM MSG + 1 μM cpd as | 1 μM cpd as strong as
